According to paper doi:10.1101/2020.07.07.192294v1 (biorxiv, 2020):
Where two headings read alike, the source gives them in different places.

How the values were obtained:
[1] = target: T1, CYP142 (Rv3518c) (Mycobacterium tuberculosis, UniProt P9WPL5); assay: biochemical
[2] = target: T2, CYP125 (Mycobacterium tuberculosis, UniProt P9WPP1); assay: biochemical
T2 sequence (P9WPP1 1-433): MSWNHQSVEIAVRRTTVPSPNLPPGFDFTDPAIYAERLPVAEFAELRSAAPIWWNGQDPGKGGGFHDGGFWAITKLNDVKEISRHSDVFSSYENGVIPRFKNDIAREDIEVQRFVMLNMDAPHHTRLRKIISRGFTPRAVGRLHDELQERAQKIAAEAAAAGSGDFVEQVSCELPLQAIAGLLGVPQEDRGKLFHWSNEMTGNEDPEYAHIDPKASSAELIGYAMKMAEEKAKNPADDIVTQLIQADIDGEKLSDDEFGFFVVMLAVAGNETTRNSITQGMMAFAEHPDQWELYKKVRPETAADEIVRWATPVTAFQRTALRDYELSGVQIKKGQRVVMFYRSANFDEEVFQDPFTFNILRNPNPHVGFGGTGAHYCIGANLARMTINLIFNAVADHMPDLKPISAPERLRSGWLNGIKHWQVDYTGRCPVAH

[3] = target: T3, CYP124 (Mycobacterium tuberculosis, UniProt P9WPP3); assay: biochemical
T3 sequence (P9WPP3 1-428): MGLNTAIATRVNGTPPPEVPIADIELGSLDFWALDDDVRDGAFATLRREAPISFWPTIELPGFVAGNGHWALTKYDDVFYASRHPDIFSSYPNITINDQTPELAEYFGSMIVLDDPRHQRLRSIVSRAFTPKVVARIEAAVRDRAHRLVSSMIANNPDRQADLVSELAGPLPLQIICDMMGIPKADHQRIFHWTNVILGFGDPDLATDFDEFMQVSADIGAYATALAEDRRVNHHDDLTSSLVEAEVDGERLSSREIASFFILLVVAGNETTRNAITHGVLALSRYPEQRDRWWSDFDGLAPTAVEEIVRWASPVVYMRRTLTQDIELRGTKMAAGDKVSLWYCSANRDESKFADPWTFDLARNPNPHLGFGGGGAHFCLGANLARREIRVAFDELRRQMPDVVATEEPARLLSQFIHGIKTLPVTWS

[4] = target: T1, CYP142 (Rv3518c); settings: read-out: Kdapp ± SE (μM) / CYP142; binder
[5] = target: T4, CYP142 (Rv3518c) (Mycobacterium tuberculosis, UniProt P9WPL5); assay: biochemical; format: binding
T4 sequence (P9WPL5 1-398): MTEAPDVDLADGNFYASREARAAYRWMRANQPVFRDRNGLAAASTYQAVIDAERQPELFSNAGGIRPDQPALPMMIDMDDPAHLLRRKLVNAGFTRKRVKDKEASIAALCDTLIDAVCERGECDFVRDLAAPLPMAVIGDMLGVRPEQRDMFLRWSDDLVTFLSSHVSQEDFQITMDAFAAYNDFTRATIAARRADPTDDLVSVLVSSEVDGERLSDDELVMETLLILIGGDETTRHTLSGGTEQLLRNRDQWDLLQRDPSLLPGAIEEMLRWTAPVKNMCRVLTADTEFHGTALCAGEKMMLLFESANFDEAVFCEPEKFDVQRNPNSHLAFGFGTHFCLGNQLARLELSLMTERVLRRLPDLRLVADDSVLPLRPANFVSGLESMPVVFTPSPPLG

SMILES | Kd [1] | Kd [2] | Kd [3] | Kd [4] | Kd ([2]; read-out: Kdapp ± SE (μM) / CYP125, binder) | Kd ([3]; read-out: Kdapp ± SE (μM) / CYP124, binder) | Kd [5]
CC(C)CCC[C@@H](C)[C@H]1CC[C@H]2[C@@H]3C(=O)C=C4C[C@@H](O)CC[C@]4(C)[C@H]3CC[C@]12C [7ketoC] | 4.3 ± 0.8 µM | 12.4 ± 1.7 µM | 6.5 ± 0.8 µM | – | – | – | –
CC(C)CCC[C@@H](C)[C@H]1CC[C@H]2[C@@H]3[C@@H](O)CC4=CC(=O)CC[C@]4(C)[C@H]3CC[C@]12C [7βOHC-one] | – | – | – | 27 ± 8 µM | 26 ± 3 µM | 13.2 ± 1.7 µM | –
CC(C)CCC[C@@H](C)[C@H]1CC[C@H]2[C@@H]3[C@@H](O)C=C4C[C@@H](O)CC[C@]4(C)[C@H]3CC[C@]12C [7βOHC] | 6 ± 1.4 µM | 13 ± 2 µM | 11.1 ± 1.3 µM | – | – | – | –
CCOC(=O)CCCCCCn1ccnc1 [CHImi] | – | 31 ± 4 µM | 1.45 ± 0.08 µM | – | – | – | 3.73 ± 0.19 µM
CC(C)CCC[C@@H](C)[C@H]1CC[C@H]2[C@@H]3CCC4=CC(=O)CC[C@]4(C)[C@H]3CC[C@]12C [Cholestenone] | – | 10.8 ± 1.8 µM | 3.4 ± 0.6 µM | – | – | – | –
O=C(O)CCCCCCCn1ccnc1 [ChpImi] | – | 1.61 ± 0.03 µM | 3.1 ± 0.5 µM | – | – | – | 31 ± 3 µM
Cc1cc(CCC(C)C)ccc1NC=NO [cpd5', N′-hydroxy-N-(4-isopentyl-2-methylphenyl)formimidamide] | – | 16 ± 5 µM | 1.93 ± 0.16 µM | – | – | – | 0.17 ± 0.06 µM
